≈ marks a conversion by molar mass, not a printed value. Like-named read-outs stand apart in the source and are kept apart here.
Tests used:
[1] = Form conversion and degradation under thermal stress
Protocol: Studies were also conducted to evaluate the likelihood for conversion and degradation under thermal stress.

[2] = Moisture sorption analysis; type: physicochemical; conditions: for Moisture sorption: hygroscopicity: relative humidity scan; for XRPD pattern following the moisture sorption/desorption analysis: after moisture sorption experiment; for Hysteresis upon desorption / hydrate formation: desorption scan
Protocol: Moisture Sorption Analysis was performed with a Hiden IGAsorp Moisture Sorption Instrument. Samples were first dried at 0% relative humidity at 25° C. until an equilibrium weight was reached, or for a maximum of 4 hours. Samples were then subjected to an isothermal (25° C.) scan from 10-90% relative humidity in steps of 10%. The samples were allowed to equilibrate to an asymptotic weight at each point for a maximum of 4 hours. Following absorption, a desorption scan from 85% relative humidity (at 25° C.) was run in steps of −10%, again allowing a maximum of 4 hours for the samples to equilibrate. The resulting samples after desorption were dried at 80° C. for two hours and analyzed by XRPD.

[3] = Slurry studies (inter-conversion of the solid form)
Protocol: Slurry experiments were performed on each form to determine propensity for conversion and to see if a unique form could be generated.

[4] = Solubility measurements at pH 2, 7 and 12 in phosphate buffer; conditions: solids after solubility analysis (choline salt: pH 2 and 7 only)
Protocol: (§1) Solubility concentrations were determined using area-percent calculations with HPLC calibration curves.

[5] = pH 2
Protocol: as §1

[6] = all physiological relevant pH values from pH 2.0 to pH 8.5; deionized water, buffered aqueous solutions
Protocol: UV spectroscopy was performed with a Perkin-Elmer Lambda 25 spectrometer. Samples were dissolved in acetonitrile, water and a buffer system having a pH between 5.6 and 10. Spectra were acquired between 340 and 190 nm, using a 1 cm path length with background correction.

[7] = Additional solubility studies in 100 mM phosphate buffer (HPLC); type: physicochemical; conditions: pH 7.3, aqueous buffer, thermodynamic from solid, pH 7.30, pH after 18 h slurry 7.31, ambient temperature
Protocol: Each determination was carried out in duplicate, slurrying each sample in a 100 mM phosphate buffer solution, pH 7.00. […] After this time all samples were centrifuged, and the supernatant was diluted with mobile phase (MeCN/Water.).

[8] = 60° C., closed, protected from light, 7 and 14 days
[9] = 25° C., listed as Choline diazoxide salt

SMILES	Form conversion and degradation under thermal stress (XRPD, DSC) [1, 8]	Moisture sorption: hygroscopicity ([2]; 25° C.)	Water absorbed at 60% RH ([2]; 25° C.)	XRPD pattern following the moisture sorption/desorption analysis [2]	Slurry study: conversion of solid form ([3]; n-heptane, dichloromethane (CH2Cl2) and toluene, 7 and 14 days)	XRPD pattern of the solids obtained after the solubility analysis [4]	Degradation by HPLC after thermal stress [1]	Form conversion and degradation under thermal stress (XRPD, DSC) [1]	Hysteresis upon desorption / hydrate formation ([2]; 25° C.)	Hysteresis upon desorption / hydrate formation [2, 9]	Moisture sorption: hygroscopicity [2, 9]	Water absorbed at 80% RH ([2]; 25° C., 80% RH)	Slurry study: conversion of solid form ([3]; n-heptane, dichloromethane (CH2Cl2) and toluene, 7 and 14 days, listed as Choline diazoxide salt)	XRPD pattern of the solids obtained after the solubility analysis [5]	Fate of the salt in aqueous medium (UV/Vis absorbance) [6]	Hysteresis upon desorption / hydrate formation ([2]; 25° C., listed as Free form)	Water absorbed at 90% RH ([2]; 25° C., 90% RH) [wt %]	Slurry study: conversion of solid form ([3]; room temperature, no light, water, isopropyl alcohol, dichloromethane and toluene, 14 days)	solubility at 18 h [7] [µg/mL]
CC1=Nc2ccc(Cl)cc2S(=O)(=O)[N-]1.C[N+](C)(C)CCO [Form B]	Stable after 14 days at	Hygroscopic - deliquesced	7.4 wt %	remained in the Form B crystal structure	form conversion was not observed	Form B of the choline salt of diazoxide was still present	–	–	–	–	–	–	–	–	–	–	–	–	–
CC1=Nc2ccc(Cl)cc2S(=O)(=O)[N-]1.C[N+](C)(C)CCO [choline salt of diazoxide]	–	hygroscopic	–	changed to an alternate crystalline form	–	–	did not show any significant degradation	consistent with the starting material, as well as the presence of additional unique peaks	does not form a stable hydrate	no hysteresis	deliquescent -	over 28 wt %	no propensity of inter-conversion	changed back to the free form diazoxide material	hydrolyzes to the free base of diazoxide and choline hydroxide	–	–	–	–
CC1=NS(=O)(=O)c2cc(Cl)ccc2N1 [free form diazoxide, 7-chloro-3-methyl-2H-1,2,4-benzothiadiazine 1, 1 dioxide, reference compound]	no conversion or degradation	non-hygroscopic	approximately 0.04 wt %	same crystalline form	–	–	–	–	does not form a stable hydrate	–	–	–	–	–	–	no hysteresis	~0.20	did not convert to alternate crystal forms	70 (≈ 303 µM)
